Reference: patent US6972287B1, “Method of inhibiting amyloid protein aggregation and imaging amyloid deposits” (Pfizer Inc., priority 1999, dated 2005)
Values joined by “and” are separate entries in the source; they are usually repeats but may differ in a detail not shown here. Identical values can stand only once.

Legend:
Aβ (1-40) peptide = target: T1, Aβ (1-40) peptide (Homo sapiens, UniProt P05067); experiment: BAPA (Beta-Amyloid Peptide Aggregation, pH 6.0, filtration); format: biochemical; details: Aβ (1-40) 33 μM, pH 6.0, 2 to 4 hours at room temperature; replicate values; letter = synthetic lot
T1 construct: 10 μL 0.5 mg/mL Aβ (1-40) peptide in 20% HFIP
T1 sequence (P05067 672-711 limits assumed): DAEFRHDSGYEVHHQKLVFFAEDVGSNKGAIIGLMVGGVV
Method in brief: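 Aggregation of human Aβ (1-40) peptide was measured in an endpoint filtration assay. The peptide was first reduced to monomer with hexafluoroisopropanol (HFIP), then used at 33 μM so it would aggregate at pH 6.0, and incubated for 2 to 4 hours at room temperature. Filter plates were washed with 100 μL phosphate buffer, impregnated with Meltilex, and counted on a Microbeta counter with background correction.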

Aβ (1-42) = target: T2, Aβ (1-42) (Homo sapiens, UniProt P05067); experiment: BATYM assay (Aβ (1-42) aggregation, Thioflavin T fluorescence); format: biochemical; details: Aβ 1-42 final concentration 100 μM, 37° C., 1 day, letter = synthetic lot
T2 construct: Required Aβ (1-42) (California Peptide) was dried from its hexafluoroisopropanol (HFIP) stock solution; purchased California Peptide
T2 sequence (P05067 672-713 limits assumed): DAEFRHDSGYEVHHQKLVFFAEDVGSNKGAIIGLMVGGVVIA
Method in brief: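 Aβ (1-42) (100 μM final, PBS pH 7.4 from DMSO) incubated with compound at 37° C. for 1 day. Aggregation read by ThT (30 μM, glycine-NaOH pH 8.5) fluorescence, ex 440/em 485 nm; inhibition as fluorescence reduction corrected for compound-alone signal, IC50 by curve fitting from two experiments in triplicate.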

Aβ(1-40) [1] = target: T3, Aβ(1-40) (Homo sapiens, UniProt P05067); experiment: BASST (Beta-Amyloid Self-Seeding, Thioflavin T), inhibitors of self-seeded amyloid fibril growth; format: biochemical; details: 30 μM soluble Aβ(1-40), 37° C., 3 to 5 hours, thioflavin T fluorescence; replicate values; letter = synthetic lot; read-out: BASST (IC50 = μM)
T3 construct: […]; purchased Bachem, Torrance, Calif
T3 sequence (P05067 672-711 limits assumed): as the sequence (P05067 672-711 limits assumed) above
Method in brief: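 Self-seeded Aβ(1-40) fibril growth was run in 50 mM sodium phosphate pH 7.5, 100 mM NaCl, 0.02% NaN3, 1 M urea. Compounds were tested in 3-fold serial dilutions (top 100 μM final): 10 min on ice, then 3–5 h at 37 °C. Fibrils were read by 5 μM thioflavin T fluorescence (ex 440/em 485 nm).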

Aβ(1-40) [2] = target: T3, Aβ(1-40); experiment: BASSR (Beta-Amyloid Self-Seeding Radioassay), inhibitors of self-seeded amyloid fibril growth; format: biochemical; details: 30 μM soluble Aβ(1-40) + 125I-labeled Aβ(1-40), 37° C., 3 to 5 hours; replicate values; letter = synthetic lot; ppt = precipitate; V-shaped = inhibition followed by precipitation
Method in brief: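 Self-seeded growth of ^125I-labeled Aβ(1-40) fibrils in 50 mM sodium phosphate pH 7.5, 100 mM NaCl, 0.02% NaN3, 1 M urea; compound (3-fold dilutions from 100 μM final) preincubated 10 min on ice, then 3–5 h at 37° C. Fibrils collected by vacuum filtration on 0.2 μm filters and counted for radioactivity.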

Row | Structure (SMILES) | IC50 (Aβ (1-40) peptide) [µM] | IC50 (Aβ (1-42)) | IC50 (Aβ(1-40) [1]) | IC50 (Aβ(1-40) [2]) | melting point [°C]
1 | O=C(O)c1cc([N+](=O)[O-])ccc1Nc1ccc(CCc2ccc(Cl)c(Cl)c2)cc1 [Example 2, 2-{4-[2-(3,4-Dichloro-phenyl)-ethyl]phenylamino}-5-nitrobenzoic acid] | 70 | 6.52 µM | 1 µM and 1.5 µM | 2.2 µM and 4.1 µM (2×) and 12 µM and 4.5 µM | 214 to 217
2 | Cc1ccc(CCc2ccc(Nc3ccc([N+](=O)[O-])cc3C(=O)O)cc2)cc1C [Example 16, 2-{4-[2-(3,4-Dimethyl-phenyl)-ethyl]phenylamino}-5-nitrobenzoic acid] | 13 | 12 µM and 10.3 µM | 3 µM (2×) and 1.1 µM and 800 nM and 600 nM |  | 214 to 216
3 | CC(=O)Nc1ccc(CCc2ccc(Nc3ccccc3C(=O)O)cc2)cc1 [Example 35, 2-{4-[2-(4-Acetylaminophenyl)ethyl]phenylamino}benzoic acid] | 154 | > 100 µM |  | > 100 µM | 224
4 | O=C(O)c1ccccc1Nc1ccc(CCCc2ccc(-n3cccc3)cc2)cc1 [Example 46, 2-(4-{3-[4-(1H-Pyrrol-1-yl)phenyl]propyl}phenylamino)benzoic acid] |  | 34.3 µM | 6 µM | > 100 µM | 131 to 136
5 | CCN(CC)C(=O)c1ccc(CCCc2ccc(Nc3ccccc3C(=O)O)cc2)cc1 [Example 48, 2-{4-[3-(4-Diethylcarbamoylphenyl)propyl]phenylamino}benzoic acid] |  | > 100 µM | 10 µM | 25 µM | 57 to 62
6 | O=C(O)c1ccc(CCCc2ccc(Nc3ccccc3C(=O)O)cc2)cc1 [Example 49, 2-{4-[3-(4-Carboxyphenyl)propyl]phenylamino}benzoic acid] |  | > 100 µM | > 100 µM | > 100 µM | 236 to 239
7 | CCN(CC)Cc1ccc(CCCc2ccc(Nc3ccccc3C(=O)O)cc2)cc1 [Example 50, 2-{4-[3-(4-Diethylaminomethylphenyl)propyl]phenylamino}benzoic acid] |  | > 100 µM | > 100 µM | > 100 µM | 137
8 | O=C(O)c1ccccc1Nc1ccc(CCCc2ccc(N3CCCC3)cc2)cc1 [Example 53, 2-{4-[3-(4-Pyrrolidin-1-yl-phenyl)-propyl]-phenylamino}-benzoic acid] |  | 30 µM | 0.3 µM | > 100 µM | 171 to 177
9 | O=C(O)c1ccccc1Nc1ccc(CCCc2cccc(N3CCCCC3)c2)cc1 [Example 54, 2-{4-[3-(3-Piperidin-1yl-phenyl)-propyl]-phenylamino}-benzoic acid] |  | 43.9 µM | 0.4 µM | > 100 µM | 59 to 61
10 | CCCCN1CCCc2cc(C=C3SC(=S)N(CCC(=O)O)C3=O)ccc21 [Example 57, 3-{5-[(1-Butyl-1,2,3,4-tetrahydroquinolin-6-yl)methylidene]-4-oxo-2-thioxo-thiazolidin-3-yl)propanoic acid] |  | 4 µM | 1.5 µM | 4.8 µM | 214 to 215
11 | CCCCN1CCCc2cc(C=C3SC(=S)N(CCCC(=O)O)C3=O)ccc21 [Example 58, 4-{5-[(1-Butyl-1,2,3,4-tetrahydroquinolin-6-yl)methylidene]-4oxo-2-thioxo-thiazolidin-3-yl)butanoic acid] |  | 5.1 µM | 1 µM | 3.5 µM | 152 to 154
12 | O=C(O)c1cc([N+](=O)[O-])ccc1Nc1ccc(CCc2ccc(-c3ccccc3)cc2)cc1 [Example 62, 2-[4-(2-Biphenyl-4-yl-ethyl)phenylamino]-5-nitro-benzoic acid] |  | 8.98 µM | 1.5 µM | > 100 µM | 239 to 244
13 | O=C(O)c1cc(F)ccc1Nc1ccc(CCc2ccc(Cl)c(Cl)c2)cc1 [Example 71, 2-{4-[2-(3,4-Dichloro-phenyl)-ethyl]-phenylamino}-5-fluoro-benzoic acid] | > 60 |  | 3 µM | > 100 µM | 180 to 182
14 | O=C(O)c1cc([N+](=O)[O-])ccc1Nc1ccc(CCc2ccc(Cl)cc2Cl)cc1 [Example 77, 2-{4-[2-(2,4-Dichloro-phenyl)-ethyl]-phenylamino}-5-nitro-benzoic acid] | > 60 | 9.49 µM |  | 18 µM and 15 µM | 200.5 to 202.5
15 | CCCCN(CCCC)c1ccc(CCc2ccc(Nc3ccc([N+](=O)[O-])cc3C(=O)O)cc2)cc1 [Example 79, 2-{4-[2-(4-Dibutylamino-phenyl)-ethyl]-phenylamino}-5-nitro-benzoic acid] | 51 | 9.14 µM | 1 µM and 300 nM (3×) |  | > 260
16 | O=C(O)c1ccccc1Nc1ccc(CCc2ccc(N3CC[C@@H]4CCCC[C@H]4C3)cc2)cc1 [Example 82, 2(4-{2-[(4aS,8aR)-4-(Octahydro-isoquinolin-2-yl)-phenyl]-ethyl}-phenylamino)-benzoic acid] |  |  | 2 µM and 300 nM (2×) | > 100 µM | 203 to 206
17 | COc1ccc(CCc2ccc(Nc3ccccc3C(=O)O)cc2)cc1OC [Example 116, 2-{4-[2-(3,4-Dimethoxy-phenyl)-ethyl]-phenylamino}-benzoic acid] | 96 |  | 18 µM and 30 µM | > 100 µM | 159 to 161
18 | COc1ccc(Nc2ccc(CCCCc3ccc(Cl)c(Cl)c3)cc2)c(C(=O)O)c1 [Example 121, 2-{4-[4-(3,4-Dichloro-phenyl)-butyl]-phenylamino}-5-methoxy-benzoic acid] |  |  | 1 µM | > 100 µM | 155 to 158
19 | O=C(O)c1ccccc1Nc1cccc(CCc2ccc(Cl)cc2)c1 [Example 123, 2-{3-[2-(4-Chloro-phenyl)-ethyl]-phenylamino}-benzoic acid] | > 60 | 70.8 µM and 85.2 µM |  |  | 155 to 157
20 | Cc1ccc(CCc2cccc(Nc3ccccc3C(=O)O)c2)cc1C [Example 124, 2-{3-[2-(3,4-Dimethyl-phenyl)-ethyl]-phenylamino}-benzoic acid] |  | 62.7 µM | 10 µM | > 100 µM | 182 to 184
21 | O=C(O)c1ccccc1Nc1ccc(CCc2cccc(Cl)c2)cc1 [Example 128, 2-{4-[2-(3-Chloro-phenyl)-ethyl]-phenylamino}-benzoic acid] | > 60 | 75 µM and > 60 µM |  |  | 152 to 154
22 | O=C(O)c1ccccc1Nc1ccc(CCc2ccc(-c3ccccc3)cc2)cc1 [Example 129, 2-[4-(2-Biphenyl-4-yl-ethyl)-phenylamino]-benzoic acid] | > 102 | > 100 µM | 10 µM and 3 µM and 2 µM (2×) |  | 200 to 202
23 | O=C(O)c1ccccc1Nc1ccc(CCc2ccc(Cl)cc2Cl)cc1 [Example 130, 2-{4-[2-(2,4-Dichloro-phenyl)-ethyl]-phenylamino}-benzoic acid] | 238 | 47.5 µM |  | > 100 µM | 181 to 183
24 | O=C(O)c1ccc(Nc2ccc(CCc3ccc(Cl)c(Cl)c3)cc2)cc1 [Example 132, 4-{4-[2-(3,4-Dichloro-phenyl)-ethyl]-phenylamino}-benzoic acid] |  | > 100 µM | 10 µM | > 100 µM | 214 to 215
25 | O=C(O)c1ccccc1Nc1ccc(-c2cc(Cl)cc(Cl)c2)cc1 [Example 137, 2-(3′,5′-Dichloro-biphenyl-4-ylamino)-benzoic acid] | 52 |  | 3 µM | > 100 µM | > 220
26 | CCN(CC)c1ccc(Nc2ccc(CCc3ccc(Cl)c(Cl)c3)cc2)c(C(=O)O)c1 [Example 151, 2-{4-[2-(3,4-Dichloro-phenyl)-ethyl]-phenylamino}-5-diethylamino-benzoic acid] | 108 | > 100 µM |  | > 100 µM | 106 to 110
27 | Nc1ccc(CCCc2ccc(Nc3ccccc3C(=O)O)cc2)cc1 [Example 159, 2-{4-[3-(4-Aminophenyl)propyl]phenylamino}benzoic acid] |  |  |  |  | 110 to 112
